Laboratory results reported in patent publication US8592456B2 (4SC Discovery GmbH, priority 2011, dated 2013).
Where two headings read alike, the source gives them in different places.

Assays:
Assay type in all cases: cell-based
IL-17FF = IL-17FF production by PHA-stimulated human PBMC (IL-17F ELISA)
Method: (§1) Analysis of Proliferation of and Cytokine Production by Human PBMC Stimulated with PHA
(§2) Peripheral blood mononuclear cells (PBMC) from healthy human donors were purified using Accuspin™ System-Histopaque-1077 (Sigma) according to the protocol recommended by the manufacturer. Purified PBMC were then washed twice with phosphate-buffered saline (PBS) and resuspended in RPMI1640 culture medium supplemented with 10% dialyzed heat inactivated fetal calf serum, 1.5 mM L-glutamine, 100 U penicillin/ml, and […] (all from PAN Biotech, Aidenbach, Germany). For stimulation, PBMC were seeded at 1×10^5 cells/well, activated with 2 μg/ml phytohaemagglutinin (PHA, Sigma) and incubated with the test compounds for 48 hours. IL-17A, IL-17F and INF-γ were then determined in the culture supernatant using a Luminex BioPlex system, following the manufacturer's instructions (BioRad, Munich, Germany). For screening, compounds were used at 10, 1, 0.1 and 0.01 μM. To determine the IC50, compounds were titrated semilogarithmically.
(§3) Cytokines were determined in the aforementioned culture supernatant using the following methods: IL-17AA/AF was measured using the Luminex BioPlex system (BioRad, Munich, Germany); IL-17AA using the human homodimer IL-17A ELISA Ready Set Go Kit from eBioscience (Frankfurt, Germany); IL-17FF using the human IL-17F ELI-Pair from Hölzel DiagnosticaGmBH (Köln, Germany); and IFN-γ using the OptElA human IFN-g ELISA from BD Bioscience (Heidelberg, Germany), all following the manufacturer's instructions.

[1] = test system: PBMC (T cell proliferation); assay: T cell proliferation assay, PHA-stimulated human PBMC (BrdU ELISA)
Method in brief: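 BrdU ELISA readout of proliferation at 48 hours. Cells: human PBMC from healthy donors in 10% dialyzed FCS/RPMI1640, 1×10^5 per well, activated by 2 μg/ml phytohaemagglutinin in the presence of compound.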

IFNγ = assay: IFN-γ production by PHA-stimulated human PBMC (IFN-g ELISA); details: 48 h
Method: as §1
as §2, with “For stimulation, PBMC were seeded at 1×10^5 cells/well, activated with 2 μg/ml phytohaemagglutinin (PHA, Sigma) and incubated with the test compounds for 48 hours.” left out, “For screening, compounds were used at 10, 1, 0.1 and 0.01 μM. To determine the IC50, compounds were titrated semilogarithmically.” left out
as §3

[2] = Homo sapiens, 48 h, read-out: D: IC50 (Tcell proliferation)
[3] = human PBMC, 2 μg/ml PHA, 48 hours, BrdU, read-out: D: IC50 (Tcell proliferation)
[4] = PHA-stimulated human PBMC, 48 hours, BrdU, column D, activity classes 1-4, read-out: IC50 (Tcell proliferation)

Compound | IC50 [1, 3] [nM] | further results
CCOC(=O)c1c(-c2c(F)cccc2Cl)noc1-c1cnn(-c2ccccc2Cl)c1C(F)(F)F [Example B-33, ethyl 3-(2-chloro-6-fluorophenyl)-5-(1-(2-chlorophenyl)-5-(trifluoromethyl)-1H-pyrazol-4-yl)isoxazole-4-carboxylate] |  | IC50 (IL-17FF; Homo sapiens, PBMC, 48 h, read-out: B: IC50 (IL-17FF)): 100 to 1000 nM; IC50 [1, 2]: 100 to 1000 nM; IC50 (IFNγ; read-out: C: IC50 (IFNγ)): 100 to 1000 nM
Cc1csc(-c2c(-c3c(F)cccc3Cl)noc2-c2cnn(-c3cccc(Cl)c3)c2C(F)(F)F)n1 [Example I-4] |  | IC50 (IL-17FF; Homo sapiens, PBMC, 48 h, read-out: IC50 (IL-17FF)): < 10 nM; IC50 ([1]; Homo sapiens, 48 h, read-out: IC50 (Tcell proliferation)): < 10 nM; IC50 (IFNγ; read-out: IC50 (IFNγ)): < 10 nM
O=C(O)c1c(-c2c(F)cccc2Cl)noc1-c1cnn(-c2cccc(Cl)c2)c1C(F)(F)F [Example B-18, 3-(2-chloro-6-fluorophenyl)-5-(1-(3-chlorophenyl)-5-(trifluoromethyl)-1H-pyrazol-4-yl)isoxazole-4-carboxylic acid] |  | IC50 (IL-17FF; human PBMC, 2 μg/ml PHA, 48 hours, read-out: B: IC50 (IL-17FF)): 1000 to 10000 nM
CCOC(=O)c1c(-c2ccccc2Cl)noc1-c1cnn(-c2cccc(Cl)c2)c1C(F)(F)F [Example B-41, ethyl 3-(2-chlorophenyl)-5-(1-(3-chlorophenyl)-5-(trifluoromethyl)-1H-pyrazol-4-yl)-isoxazole-4-carboxylate] | 10 to 100 | 
COC(=O)c1c(-c2c(F)cccc2Cl)noc1-c1cnn(-c2cccc(F)c2)c1C(F)(F)F [Example 5, methyl 3-(2-chloro-6-fluorophenyl)-5-(1-(3-fluorophenyl)-5-(trifluoromethyl)-1H-pyrazol-4-yl)isoxazole-4-carboxylate] | < 10 | 
CON(C)C(=O)c1c(-c2ccccc2Cl)noc1-c1cnn(-c2cccc(Cl)c2)c1C(F)(F)F [Example B-64, 3-(2-chlorophenyl)-5-(1-(3-chlorophenyl)-5-(trifluoromethyl)-1H-pyrazol-4-yl)-N-methoxy-N-methylisoxazole-4-carboxamide] | 100 to 1000 | 
CNC(=O)c1c(-c2ccccc2Cl)noc1-c1cnn(-c2cccc(F)c2)c1C(F)(F)F [Example 96, 3-(2-chlorophenyl)-5-(1-(3-fluorophenyl)-5-(trifluoro-methyl)-1H-pyrazol-4-yl)-N-methylisoxazole-4-carboxamide] | 100 to 1000 | 
CNC(=O)c1c(-c2ccccc2Cl)noc1-c1cnn(-c2cccc(Cl)c2)c1C(F)(F)F [Example B-63, 3-(2-chlorophenyl)-5-(1-(3-chlorophenyl)-5-(trifluoromethyl)-1H-pyrazol-4-yl)-N-methylisoxazole-4-carboxamide] | 100 to 1000 | 
Cc1nnc(-c2c(-c3c(F)cccc3Cl)noc2-c2cnn(-c3ccncc3)c2C(F)(F)F)o1 [IB-19, 2-(3-(2-chloro-6-fluorophenyl)-5-(1-(pyridin-4-yl)-5-(trifluoromethyl)-1H-pyrazol-4-yl)isoxazol-4-yl)-5-methyl-1,3,4-oxadiazole] |  | IC50 [1, 4]: 100 to 1000 nM
N#Cc1c(-c2c(F)cccc2Cl)noc1-c1cnn(-c2cccc(Cl)c2)c1C(F)(F)F [Example 49, 3-(2-chloro-6-fluorophenyl)-5-(1-(3-chlorophenyl)-5-(trifluoromethyl)-1H-pyrazol-4-yl)isoxazole-4-carbonitrile] | 100 to 1000 | 
CCOC(=O)c1c(-c2c(F)cccc2Cl)noc1-c1cnn(-c2ccc(NC(C)=O)cc2)c1C(F)(F)F [Example B-99, ethyl 5-(1-(4-acetamidophenyl)-5-(trifluoromethyl-1H-pyrazol-4-yl)-3-(2-chloro-6-fluorophenyl)isoxazole-4-carboxylate] | 1000 to 10000 | 
COC(=O)c1c(-c2c(F)cccc2Cl)noc1-c1cnn(-c2cccc(C(F)(F)F)c2)c1C(F)(F)F [Example 82, methyl 3-(2-chloro-6-fluorophenyl)-5-(5-(trifluoromethyl)-1-(3-(trifluoromethyl)phenyl)-1H-pyrazol-4-yl)isoxazole-4-carboxylate] | 1000 to 10000 | 
CCOC(=O)c1c(-c2onc(-c3c(F)cccc3Cl)c2C(=O)OC)cnn1CC(C)C [Example 29] | 1000 to 10000 | 
Fc1cccc(-n2ncc(-c3onc(-c4c(F)cccc4Cl)c3-c3ccco3)c2C(F)(F)F)c1 [Example I-17, 3-(2-chloro-6-fluorophenyl)-5-(1-(3-fluorophenyl)-5-(trifluoromethyl)-1H-pyrazol-4-yl)-4-(furan-2-yl)isoxazole] |  | IC50 [1, 4]: < 10 nM
CNC(=O)c1c(-c2c(F)cccc2Cl)noc1-c1cnn(-c2cccc(Cl)c2)c1C(F)(F)F [Example 32, 3-(2-chloro-6-fluorophenyl)-5-(1-(3-chlorophenyl)-5-(trifluoromethyl)-1H-pyrazol-4-yl)-N-methylisoxazole-4-carboxamide] | 10 to 100 | 
NNC(=O)c1c(-c2cccc(F)c2)noc1-c1cnn(-c2cccc(F)c2)c1C(F)(F)F [Example 134, 3-(3-fluorophenyl)-5-(1-(3-fluorophenyl)-5-(trifluoromethyl)-1H-pyrazol-4-yl)isoxazole-4-carbohydrazide] | 1000 to 10000 | 
O=C(c1c(-c2c(F)cccc2Cl)noc1-c1cnn(-c2cccc(Cl)c2)c1C(F)(F)F)N1CCCO1 [Example 132, (3-(2-chloro-6-fluorophenyl)-5-(1-(3-chlorophenyl)-5-(trifluoromethyl)-1H-pyrazol-4-yl)isoxazol-4-yl)(isoxazolidin-2-yl)methanone] | 10 to 100 | 
CCOC(=O)c1c(-c2c(F)cccc2Cl)noc1-c1cnn(-c2ccccc2N)c1C(F)(F)F [Example B-98, ethyl 5-(1-(2-aminophenyl)-5-(trifluoromethyl)-1H-pyrazol-4-yl)-3-(2-chloro-6-fluorophenyl)isoxazole-4-carboxylate] |  | IC50 [1, 2]: 10 to 100 nM
CSC(=O)c1c(-c2c(F)cccc2Cl)noc1-c1cnn(-c2ccccc2F)c1C(F)(F)F [Example 130, S-methyl 3-(2-chloro-6-fluorophenyl)-5-(1-(2-fluorophenyl)-5-(trifluoromethyl)-1H-pyrazol-4-yl)isoxazole-4-carbothioate] | < 10 | 
Fc1cccc(Cl)c1-c1noc(-c2cnn(-c3cccc(Cl)c3)c2C(F)(F)F)c1-c1nccs1 [Example I-5, 3-(2-chloro-6-fluorophenyl)-5-(1-(3-chlorophenyl)-5-(trifluoromethyl)-1H-pyrazol-4-yl)-4-(thiazol-2-yl)isoxazole] |  | IC50 [1, 4]: < 10 nM
CCOC(=O)c1c(-c2onc(-c3c(F)cccc3Cl)c2C(=O)OC)cnn1-c1ccc(F)cc1 [Example 26, methyl 3-(2-chloro-6-fluorophenyl)-5-(5-(ethoxycarbonyl)-1-(4-fluorophenyl)-1H-pyrazol-4-yl)isoxazole-4-carboxylate] | 1000 to 10000 | 
CCOC(=O)c1c(-c2ccncc2F)noc1-c1cnn(-c2ccccc2F)c1C(F)(F)F [Example B-15, ethyl 5-(1-(2-fluorophenyl)-5-(trifluoromethyl)-1H-pyrazol-4-yl)-3-(3-fluoropyridin-4-yl)isoxazole-4-carboxylate] | 100 to 1000 | 
COc1cccc(Cl)c1-c1noc(-c2cnn(-c3cccnc3)c2C(F)(F)F)c1-c1cnco1 [IB-31, 3-(2-chloro-6-methoxyphenyl)-4-(oxazol-5-yl)-5-(1-(pyridin-3-yl)-5-(trifluoromethyl)-1H-pyrazol-4-yl)isoxazole] |  | IC50 [1, 4]: 1000 to 10000 nM
